{"source": "patent US20230293711A1", "about": "“DISRUPTION OF CD28-SIALOSIDE LIGAND COMPLEXES TO ENHANCE T CELL ACTIVATION” (THE SCRIPPS RESEARCH INSTITUTE, priority 2020, published 2023)", "molecules": {"B1": {"name": "anti-human PD-1 monoclonal antibody clone 1H3 (antibody, V domains shown)", "VH": "EVQLVESGGGLVKPGGSLKLSCAASGFTFSDYGMHWVRQAPEKGLEWVAYISSGSYTIYYTDTVKGRFTISRDNAKNTLFLQMTSLRSEDTAMYYCARRGYGSFYEYYFDYWGQGTTLTVSS", "VL": "QIVLTQSPALMSASPGEKVTMTCSASSSVSYMYWYQQKPRSSPKPWIYLTSNLASGVPARFSGSGSGTSYSLTISSMEAEDAATYYCQQWSSNPFTFGSGTKLEIK"}, "B2": {"name": "recombinant chimeric mouse CD28 fused to human Fc (Fc fusion, UniProt P31041 20-150, looked up)", "chain": "NKILVKQSPLLVVDSNEVSLSCRYSYNLLAKEFRASLYKGVNSDVEVCVGNGNFTYQPQFRSNAEFNCDGDFDNETVTFRLWNLHVNHTDIYFCKIEFMYPPPYLDNERSNGTIIHIKEKHLCHTQSSPKL", "notes": "Commercial Fc chimera; also called CD28-Fc; not shown: human Fc"}, "B3": {"name": "anti-mouse PD-1 monoclonal antibody clone J43 (antibody, from another filing, V domains shown)", "VH": "EVRLLESGGGLVKPEGSLKLSCVASGFTFSDYFMSWVRQAPGKGLEWVAHIYTKSYNYATYYSGSVKGRFTISRDDSRSMVYLQMNNLRTEDTATYYCTRDGSGYPSLDFWGQGTQVTVSS", "VL": "YELTQPPSASVNVGETVKITCSGDQLPKYFADWFHQRSDQTILQVIYDDNKRPSGIPERISGSSSGTTATLTIRDVRAEDEGDYYCFSGYVDSDSKLYVFGSGTQLTVLG"}}, "key": {"OT-II cells [1]": {"system": "OT-II cells", "experiment": "APC-free expansion of OT-II cells with anti-CD3 and recombinant CD80 in the presence of soluble glycan", "format": "cell-based", "settings": "soluble glycan 500 μM; anti-CD3 and recombinant CD80-Fc", "method": "FIG. 7. APC-free expansion of OT-II cells in the presence of soluble glycan (500 μM). (A) Experimental setup. T cells were activated using anti-CD3 (αCD3) and recombinant CD80 (rCD80). (B) OT-II cell proliferation histograms. (C) Quantification of data from (B).\nSince recombinant CD80 binding to CD28 was the sole source of co-stimulation for T cells in this experiment, we conclude that sialic acid ligands of CD28 functionally suppress CD28 mediated co-stimulation."}, "mouse PD-1 (mPD1)": {"molecular_target": "T1, mouse PD-1 (mPD1) (Mus musculus, UniProt Q02242)", "T1 sequence (Q02242 25-288)": "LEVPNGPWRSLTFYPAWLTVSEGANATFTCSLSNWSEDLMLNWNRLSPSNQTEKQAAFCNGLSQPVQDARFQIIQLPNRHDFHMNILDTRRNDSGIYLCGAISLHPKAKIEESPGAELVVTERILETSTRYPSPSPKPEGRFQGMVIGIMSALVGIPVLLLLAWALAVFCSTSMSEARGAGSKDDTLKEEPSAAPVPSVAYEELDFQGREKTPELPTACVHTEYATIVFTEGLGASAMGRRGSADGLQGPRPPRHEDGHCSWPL", "experiment": "Binding of expressed anti-PD-1 monoclonal antibodies and conjugate to mouse PD-1 (ELISA)", "settings": "anti-hPD1 clones", "source_text": "FIG. 11. Three expressed anti PD-1 monoclonal antibodies targeted respectively to either human PD-1 (hPD1) and mouse PD-1 (mPD1) bind with high specificity and affinity.\n(§1) We investigated the possibility of using non-specific small-molecule linkers to install multiple reactive sites on three expressed αPD1 monoclonal antibodies. […] Through an inverse Electron Demand Diels Alder (iEDDA) reaction, two molecules conjugated respectively with tetrazine and TCO moieties can react rapidly and covalently under ambient conditions. Utilizing the methodology and reagents shown in the reaction scheme in FIG. 12A, we incubated αPD1 antibody clones with NHS-tetrazine 1, allowing non-selective labeling of solvent-exposed lysine residue side-chains (FIG. 12A). Simultaneously, we modified an expressed sialidase from Salmonella typhimurium (ST) containing a C-terminal cysteine though incubation with a 40-fold molar excess of TCO-maleimide 2, leading to near-complete selective modification of the free thiol group (FIG. 12A). To optimize conjugation yield, leading to maximum utilization of antibody starting material while also producing defined products with small numbers of ST per antibody, we titrated the molar ratio of NHS-tetrazine used to load the antibody with reactive groups in step one of the conjugation reaction (FIG. 12B). […]"}, "[2]": {"experiment": "Sialidase activity of purified αPD1-S against MUNANA", "format": "biochemical", "settings": "1 activity unit=1 μmol min-1; purified single- and double-modified αPD1-S", "method": "as §1"}, "DCs (expressing CD80)": {"system": "DCs (expressing CD80)", "experiment": "Binding of recombinant CD28-Fc to sialidase-treated DCs (flow cytometry)", "format": "cell-based, mouse"}, "[3]": {"system": "T cells (CD4^+ and CD8^+) from murine spleen (expressing CD28)", "experiment": "Binding of recombinant CD80-Fc to sialidase-treated T cells (flow cytometry)", "format": "cell-based"}, "OT-II cells [4]": {"system": "OT-II cells", "experiment": "Adoptive transfer of ex vivo desialylated CTV-stained OT-II cells into OVA experienced host mice", "format": "in vivo", "settings": "cells treated ex vivo 45 min at 37° C.; OVA sensitized mice; vs normally sialylated control", "method": "FIG. 8. Desialylated T cells are more readily activated in vivo. (A) WT mice were injected with OVA on day 1. On day 2, OT-II cells were treated with sialidase or PBS ex vivo for 45 min. at 37° C. and subsequently stained with CTV. These cells were then adoptively transferred into OVA experienced host mice (or naïve mice as a control). On day 5, spleens from host mice were analyzed for adoptively transferred OT-II cells and CTV dilution was evaluated. […] (C) Quantification of data from (B). […] Normalized division index corresponds to T cell division index for sialidase-treated cultures divided by the division index for the corresponding PBS treated control.\nTo investigate the translatability of these findings to an in vivo system, we adoptively transferred CTV-stained OT-II cells that were desialylated ex vivo into a WT host mouse. We observed that desialylated OT-II cells expanded more efficiently in vivo as compared to a normally sialylated control (FIG. 8)."}, "exhausted P14 cells": {"system": "exhausted P14 cells", "format": "cell-based, mouse"}, "[5]": {"system": "Polyclonal CD8^+ T cells exhausted via chronic LCMV infection", "format": "cell-based, mice"}, "[6]": {"system": "OT-I cells (CD8^+ T cells)", "experiment": "OT-I proliferation (CTV dilution) in co-culture with OVA-loaded DCs with or without sialidase"}, "[7]": {"system": "OT-II cells (CD4^+ T cells)", "experiment": "OT-II proliferation (CTV dilution) in co-culture with OVA-loaded DCs with or without sialidase"}, "human CD28": {"molecular_target": "human CD28 (Homo sapiens, UniProt P10747)", "sequence (P10747 19-220)": "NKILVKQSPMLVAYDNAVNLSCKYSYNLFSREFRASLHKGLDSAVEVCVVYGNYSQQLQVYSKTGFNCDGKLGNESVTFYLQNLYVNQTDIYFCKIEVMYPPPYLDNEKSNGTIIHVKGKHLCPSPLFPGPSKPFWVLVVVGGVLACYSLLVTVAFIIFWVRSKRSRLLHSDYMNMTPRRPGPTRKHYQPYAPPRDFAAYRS", "experiment": "Steady state SPR of soluble glycan binding to surface immobilized CD28", "source_text": "FIG. 5. Biophysical characterization of a CD28-sialoside interaction. Steady state SPR data for α2,3-Sialyl-triLacNAc and triLacNAc binding to surface immobilized human CD28.\nAs an orthogonal test for sialoside binding and to assess the affinity of a sialoside ligand, we tested the ability of surface-immobilized CD28 to bind to a soluble sialylated glycan using SPR."}, "[8]": {"molecular_target": "chimeric PD-1 fused to green fluorescent protein, expressed on Jurkat T cells", "experiment": "cell-based or functional assay"}, "human PD-1": {"molecular_target": "T2, human PD-1 (human, UniProt Q15116 25-167, limits assumed)", "T2 construct": "also called hPD1", "T2 sequence (Q15116 25-167 limits assumed)": "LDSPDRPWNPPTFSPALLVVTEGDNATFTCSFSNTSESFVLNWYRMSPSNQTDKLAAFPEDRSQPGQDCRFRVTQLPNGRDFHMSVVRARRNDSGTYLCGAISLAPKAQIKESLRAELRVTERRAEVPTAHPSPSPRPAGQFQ", "experiment": "ELISA (FIG. 11)"}, "[9]": {"molecular_target": "T3, CD80 on murine dendritic cells (mouse, UniProt Q00609 38-306)", "T3 construct": "whole, on cells; DCs (expressing CD80), untreated or treated with V. cholerae sialidase; also called B7-1", "T3 sequence": "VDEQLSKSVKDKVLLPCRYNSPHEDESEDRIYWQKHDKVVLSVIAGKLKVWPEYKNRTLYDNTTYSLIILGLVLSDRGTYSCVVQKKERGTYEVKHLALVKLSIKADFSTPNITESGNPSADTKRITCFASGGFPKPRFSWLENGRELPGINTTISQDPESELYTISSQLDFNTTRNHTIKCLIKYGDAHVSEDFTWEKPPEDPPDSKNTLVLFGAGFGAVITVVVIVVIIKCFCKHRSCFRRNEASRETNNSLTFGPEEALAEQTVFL", "experiment": "flow cytometry on DCs with or without sialidase"}, "mouse PD-1 (mouse)": {"molecular_target": "mouse PD-1 (mouse) (UniProt Q02242)", "experiment": "ELISA (FIG. 11)"}, "[10]": {"settings": "OVA-loaded bone marrow derived DCs, 3 days, vs PBS"}, "[11]": {"settings": "bulk OVA-loaded splenocytes, DCs differentiated using Flt3L"}}, "data": [{"molecule": "NeuAcα2-3Galβ1-4(Fucα1-3)GlcNAc [sialylated-Lewis X]", "values": [{"measurement": "T cell proliferation", "setting": "OT-II cells [1]", "value": "significant reduction"}]}, {"molecule": "Pembrolizumab [409A11]", "values": [{"measurement": "affinity for mPD1", "setting": "mouse PD-1 (mPD1)", "value": "no affinity"}, {"measurement": "sialidase activity against MUNANA", "setting": "[2]", "value": 26, "unit": "U mL-1"}]}, {"molecule": "sialidase: free sialidase; from V. cholerae in FIG. 2 and 6, source not stated for the other experiments", "values": [{"measurement": "binding of recombinant CD28-Fc to desialylated DCs compared to untreated controls", "setting": "DCs (expressing CD80)", "value": "significant enhancement"}, {"measurement": "binding of recombinant CD80-Fc to desialylated T cells compared to untreated controls", "setting": "[3]", "value": "significant enhancement"}, {"measurement": "proliferation of adoptively transferred OT-II cells in vivo", "setting": "OT-II cells [4]", "value": "enhanced proliferation"}, {"measurement": "cytokine production (IFN-γ/TNF-α)", "setting": "exhausted P14 cells", "value": "enhanced"}, {"measurement": "T cell activation (percentage of cells expressing IFN-γ and granzyme B) over peptide alone", "setting": "[5]", "value": "enhanced"}, {"measurement": "expression of LAMP-1 over peptide alone", "setting": "[5]", "value": "enhanced"}, {"measurement": "enhancement of CD8^+ T cell proliferation", "setting": "[6]; [10]", "value": "2-3 fold"}, {"measurement": "OT-I cell activation with alternative APC sources", "setting": "[6]; [11]", "value": "enhancement"}, {"measurement": "enhancement of CD4^+ T cell proliferation", "setting": "[7]; [10]", "value": "2-3 fold"}, {"measurement": "OT-II cell activation with alternative APC sources", "setting": "[7]; [11]", "value": "enhancement"}]}, {"molecule": "α2,3-Sialyl-triLacNAc [soluble sialylated glycan]", "values": [{"measurement": "Kd", "setting": "human CD28", "value": 112, "unit": "µM"}]}, {"molecule": "αhPD1-S (409A11), conjugate of anti-human PD-1 clone 409A11 and Salmonella typhimurium sialidase (from UniProt P29768 2-382)", "values": [{"measurement": "desialylation of Jurkat-PD1-GFP against Jurkat T cells (lectin staining SNA, PNA, MAA-II, flow cytometry)", "setting": "[8]", "value": "> 100", "unit": "fold"}, {"measurement": "fold decrease in level of αPD1-S needed for similar desialylation of Jurkat-PD1-GFP against native Jurkat cells", "setting": "[8]", "value": "100 to 1000", "unit": "fold"}]}, {"molecule": "B1", "values": [{"measurement": "EC50", "setting": "human PD-1", "value": 0.16, "unit": "µg/mL"}]}, {"molecule": "B2", "values": [{"measurement": "binding result", "setting": "[9]", "value": "binds"}]}, {"molecule": "B3", "values": [{"measurement": "EC50", "setting": "mouse PD-1 (mouse)", "value": 0.39, "unit": "µg/mL"}]}]}
